In US5703205A, “Laminin a chain polypeptides from the amino terminal golbular domain” (Regents of the University of Minnesota, priority 1993, dated 1997):

Legend:
Type in all cases: cell-based
[1] = system: HT-1080 human fibrosarcoma cells; experiment: Cell spreading assay on coated surfaces; settings: for Cells Spread (%) / Surface Area Occupied by a Cell: wells coated with 300 μl at 100 μg/ml, 2 1/2 hour incubation
Experimental: Spreading of the adherent cells was evaluated by performing adhesion assays similar to those described above. Twenty-four well tissue culture plates (Becton Dickinson and Co., Lincoln Park, N.J.) were coated with 300 μl of laminin, synthetic peptides, or BSA at 100 μg/ml, then blocked with 2 mg/ml BSA in PBS. Three hundred microliters of a cell suspension at 5×10^4 cells/ml was added to each well, and after a 21/2 hour incubation, nonadherent cells were aspirated out of the wells. Adherent cells were fixed with 2% glutaraldehyde in PBS at 23° C. for one hour. The glutaraldehyde was then removed and the cells were stained by two different techniques. For photographic purposes, the cells were stained with Diff-Quik Solution I (American Scientific Products, McGaw Park, Ill.) for 10 minutes at 23° C. Solution I was removed, then Diff-Quik Solution II was added and the cells were stained for another 10 minutes at 23° C. Wells were washed with PBS, then representative cells were photographed with a Nikon DIAPHOT inverted phase microscope using Panatomic X Film ASA32 (Eastman Kodak, Rochester, N.Y.). Adherent cells to be quantitated for spreading were stained overnight at 23° C. with 500 μl of a solution containing 0.12% (w/v) Coomassie Brilliant Blue R (Sigma Chemical Co.), 5% (v/v) acetic acid, and 50% (v/v) ethanol. Wells were washed three times with 500 μl of PBS and cell spreading was then quantitated by measuring the average surface area occupied by a cell using an Opti-Max Image Analyzer. Thirty cells were measured per well; each experiment was done in quadruplicate and repeated three times. Cells spread the best on peptide R17 and R18 and occupy an area of ~30% of that seen for cells on laminin-coated surfaces. On surfaces coated with peptides R19, R20, and R32, less cell spreading was observed; cells occupied an area ~20% of that seen on intact laminin. Cell spreading on ovalbumin (negative control) was less than 10% of that seen on laminin but the cells were barely adherent under these last conditions.

[2] = system: murine fibrosarcoma (MM); experiment: Direct cell adhesion to coated surfaces (Table II); settings: wells coated with 5 μg, 2 hours, % of total cells added
Source text: (§1) The human fibrosarcoma HT-1080 cell line was obtained from the ATCC. The murine melanoma K-1735-C10 (low metastatic) and K-1735-M4 (high metastatic) cell lines, murine UV-2237-MM fibrosarcoma cell line, human renal carcinoma SN12 PM-6 (high metastatic) cell line, and human colon carcinoma KM12 C (low metastatic) and KM12 SM (high metastatic) cell lines were originally provided by Dr. I. J. Fidler (M.D., Anderson Hospital, University of Texas Health Sciences Center, Houston, Tex.). The MM fibrosarcoma cell line was maintained in DME (GIBCO Laboratories, Grand Island, N.Y.) containing 10% FBS, the murine melanomas were maintained in DMEM containing 10% calf serum, the human fibrosarcoma cells were maintained in EMEM containing 10% heat inactivated FBS, and the human renal and colon carcinoma cells were grown in EMEM containing 10% FBS, vitamins, and 1 mM sodium pyruvate. Cells were passaged for 4 to 5 weeks and then replaced from frozen stocks of early passage cells to minimize phenotypic drift. Cells were maintained at 37° C. in a humidified incubator containing 5% CO2.
(§2) The direct adhesion of cells to protein or peptide coated surfaces was performed as described in Skubitz et al., Exp. Cell Res., 173, 349-360 (1987) and Charonis et al., supra (1988). Briefly, radiolabeled cells were added to 96-well microtiter plates coated with various concentrations of synthetic peptides, laminin, or BSA (0.02 μg/well-50 μg/well from 50 μl solutions) for various lengths of time. After the incubation period, loosely or nonadherent cells were removed by washing the wells three times. Adherent cells weresolubilized and quantitated in a scintillation counter. More specifically, cultures of cells which were 60-80% confluent were metabolically labeled for 24 hours with the addition of 3 μCi/ml of ^3 H-td (tritiated thymidine). On the day of the assay, the cells were harvested by trypsinization, the trypsin was inhibited by the addition of serum, and the cells were washed free of this mixture and resuspended in DMEM buffered with HEPES at pH 7.2. The adhesion medium also contained 2 mg/ml BSA. The cells were adjusted to a concentration of 3-4×10^4/ ml, and 100 μl of this cell suspension was added to the wells. The assay mixture was then incubated at 37° C. for 120 minutes. At the end of the incubation, the wells were washed with warm DMEM/Hepes containing 2 mg/ml BSA, and the adherent population was solubilized with 0.5N NaOH contained 1% SDS. The solubilized cells were then quantitated using a liquid scintillation counter.
(§3) Microtiter wells were adsorbed with peptide R18, laminin, or BSA and a variety of tumor cell lines were tested for the ability to adhere to the ligands. The six different tumor cell lines selected for this study were of murine or human origin and, in most cases, of either high or low metastatic capacity. As reported in Table II, peptide R18 was also capable of promoting the adhesion of all six cell lines.
(§4) *Microtiter wells were coated with 5 μg of the peptide or proteins and […]

[3] = system: human renal carcinoma (SN12 PM6); experiment: Direct cell adhesion to coated surfaces (Table II); settings: wells coated with 5 μg, 2 hours, % of total cells added
Source text: as §1, §2, §3, §4

[4] = system: murine melanoma (C10); experiment: Direct cell adhesion to coated surfaces (Table II); settings: wells coated with 5 μg, 2 hours, % of total cells added
Source text: as §1, §2, §3, §4

[5] = system: human colon carcinoma (K12C); experiment: Direct cell adhesion to coated surfaces (Table II); settings: wells coated with 5 μg, 2 hours, % of total cells added
Source text: as §1, §2, §3, §4

[6] = system: human colon carcinoma (KI2SM); experiment: Direct cell adhesion to coated surfaces (Table II); settings: wells coated with 5 μg, 2 hours, % of total cells added
Source text: as §1, §2, §3, §4

[7] = system: murine melanoma (M4); experiment: Direct cell adhesion to coated surfaces (Table II); settings: wells coated with 5 μg, 2 hours, % of total cells added
Source text: as §1, §2, §3, §4

[8] = system: HT-1080 human fibrosarcoma cells; experiment: Direct adhesion of radiolabeled cells to peptide or protein coated microtiter wells; settings: increasing concentrations adsorbed, up to 5 μg/well; 120 minutes
Experimental: FIG. 3 reports results in microtiter wells adsorbed with increasing concentrations of HPLC-purified peptides R17 (.smallcircle.) R18 (.quadrature.), or R19 (Δ), R20 (.circle-solid.), R32 (.box-solid.), laminin (.tangle-solidup.), or ovalbumin (.diamond.) and radiolabeled HT-1080 human fibrosarcoma cells that were allowed to adhere for 2 hours after being released from flasks with EDTA/trypsin. Each value represents the mean of four separate determinations, and the SEM was less than 10% in each case.
The direct adhesion of cells to protein or peptide coated surfaces was performed as described in Skubitz et al., Exp. Cell Res., 173, 349-360 (1987) and Charonis et al., supra (1988). Briefly, radiolabeled cells were added to 96-well microtiter plates coated with various concentrations of synthetic peptides, laminin, or BSA (0.02 μg/well-50 μg/well from 50 μl solutions) for various lengths of time. After the incubation period, loosely or nonadherent cells were removed by washing the wells three times. Adherent cells weresolubilized and quantitated in a scintillation counter. […] The solubilized cells were then quantitated using a liquid scintillation counter.
In this case, increasing concentrations of the five synthetic peptides were adsorbed to microtiter wells. Radiolabeled HT-1080 human fibrosarcoma cells were incubated in the wells for 120 minutes and the adhesion of cells was quantitated. […]

Substance | Cells Spread (%) [1] [%] | Surface Area Occupied by a Cell [1] [um^2] | Cell Adhesion (%) to Coated Surfaces [2] [%] | Cell Adhesion (%) to Coated Surfaces [3] [%] | Cell Adhesion (%) to Coated Surfaces [4] [%] | Cell Adhesion (%) to Coated Surfaces [5] [%] | Cell Adhesion (%) to Coated Surfaces [6] [%] | Cell Adhesion (%) to Coated Surfaces [7] [%] | cell adhesion to coated wells (in words) [8] | area occupied by cells relative to that on laminin-coated surfaces ([1]; HT-1080 cell spreading, relative to intact laminin)
Laminin | 95 | 611 ± 79 | 43 | 40 | 80 | 25 | 36 | 50 |  | 
Ovalbumin: negative control protein | 0 | 71 ± 41 |  |  |  |  |  |  | no cell adhesion was observed | less than 10%
